Measured values taken from ChEMBL document CHEMBL3352636, “Rational design, synthesis and anti-proliferative evaluation of novel benzosuberone tethered with hydrazide-hydrazones” (2014).

How the values were obtained:
Assay type in all cases: functional
HeLa = test: Growth inhibition of human HeLa cells after 48 hrs by SRB assay
MDA-MB-231 = test: Growth inhibition of human MDA-MB-231 cells after 48 hrs by SRB assay; conditions: MDA-MB-231, 48 h
[1] = Growth inhibition of human MiaPaCa cells after 48 hrs by SRB assay; conditions: MIA PaCa-2, 48 h
[2] = Growth inhibition of human IMR32 cells after 48 hrs by SRB assay; conditions: IMR-32, 48 h

In the case of `Cc1cc2c(cc1C)C(Cl)=C(/C=N/NC(=O)c1cccc3ccccc13)CCC2`, the GI50 (HeLa) was 1 µM, the GI50 (MDA-MB-231) was 0.71 µM and the GI50 [1] was 4.6 µM. The GI50 [2] was 3.9 µM.
`Cc1ccc(/C=N\NC(=O)C2=C(Cl)c3ccccc3CCC2)cc1` showed a GI50 (HeLa) of 2.3 µM, a GI50 (MDA-MB-231) of 0.26 µM and a GI50 [1] of under 0.01 µM. It also gave a GI50 [2] of 0.14 µM.
Compound `COc1cccc(/C=N\NC(=O)C2=C(Cl)c3ccccc3CCC2)c1` has a GI50 (HeLa) of 15.6 µM, a GI50 (MDA-MB-231) of 0.3 µM and a GI50 [1] of under 0.01 µM. It also gave a GI50 [2] of under 0.01 µM.
Compound `COc1ccc(/C=N\NC(=O)C2=C(Cl)c3ccccc3CCC2)c(OC)c1` has a GI50 (HeLa) of 38.5 µM, a GI50 (MDA-MB-231) of 0.29 µM and a GI50 [1] of 2.7 µM. For the same compound, the GI50 [2] was 14.9 µM.
`COc1cc(/C=N\NC(=O)C2=C(Cl)c3ccccc3CCC2)cc(OC)c1OC` showed a GI50 (HeLa) of 8.2 µM, a GI50 (MDA-MB-231) of under 0.01 µM and a GI50 [1] of 1.4 µM. For the same compound, the GI50 [2] was under 0.01 µM.
For `O=C(N/N=C\c1ccc(Cl)cc1)C1=C(Cl)c2ccccc2CCC1`, the GI50 (HeLa) was 2.3 µM, the GI50 (MDA-MB-231) was 0.26 µM and the GI50 [1] was under 0.01 µM. It also gave a GI50 [2] of 0.14 µM.
`O=C(N/N=C\c1ccc(F)cc1)C1=C(Cl)c2ccccc2CCC1` gave a GI50 (HeLa) of 1.3 µM, a GI50 (MDA-MB-231) of 0.41 µM and a GI50 [1] of under 0.01 µM. The GI50 [2] was 0.27 µM.
`O=C(N/N=C\C1=C(Cl)c2ccccc2CCC1)C1=C(Cl)c2ccccc2CCC1` gave a GI50 (HeLa) of 1 µM, a GI50 (MDA-MB-231) of 3 µM and a GI50 [1] of 1.6 µM. It also gave a GI50 [2] of 2.2 µM.
Compound `Cc1cc2c(cc1C)C(Cl)=C(/C=N\NC(=O)C1=C(Cl)c3ccccc3CCC1)CCC2` has a GI50 (HeLa) of 4.5 µM, a GI50 (MDA-MB-231) of 3.1 µM and a GI50 [1] of 0.21 µM. It also gave a GI50 [2] of 0.67 µM.
With `COc1cc(/C=N\NC(=O)C2=C(Cl)c3cc(C)c(C)cc3CCC2)cc(OC)c1OC` the GI50 (HeLa) was 21 µM, the GI50 (MDA-MB-231) was 1.2 µM and the GI50 [1] was 5.8 µM. It also gave a GI50 [2] of 4.1 µM.
`Cc1cc2c(cc1C)C(Cl)=C(C(=O)N/N=C\c1ccc(Cl)cc1)CCC2` showed a GI50 (HeLa) of 1.6 µM, a GI50 (MDA-MB-231) of 0.41 µM and a GI50 [1] of 0.44 µM. For the same compound, the GI50 [2] was 18.3 µM.
Work on `Cc1cc2c(cc1C)C(Cl)=C(C(=O)N/N=C\c1ccc(F)cc1)CCC2` yielded a GI50 (HeLa) of 2.2 µM, a GI50 (MDA-MB-231) of 0.84 µM and a GI50 [1] of 0.36 µM. For the same compound, the GI50 [2] was 3.5 µM.
`Cc1cc2c(cc1C)C(Cl)=C(C(=O)N/N=C\C1=C(Cl)c3ccccc3CCC1)CCC2` showed a GI50 (HeLa) of over 100 µM, a GI50 (MDA-MB-231) of 7.7 µM and a GI50 [1] of 6 µM. For the same compound, the GI50 [2] was 2.4 µM.
For `Cc1cc2c(cc1C)C(Cl)=C(/C=N\NC(=O)C1=C(Cl)c3cc(C)c(C)cc3CCC1)CCC2`, the GI50 (HeLa) was over 100 µM, the GI50 (MDA-MB-231) was 78.2 µM and the GI50 [1] was 6 µM. It also gave a GI50 [2] of 59.9 µM.
In the case of `O=C(N/N=C/C1=C(Cl)c2ccccc2CCC1)c1ccccc1`, the GI50 (HeLa) was over 100 µM, the GI50 (MDA-MB-231) was 11.1 µM and the GI50 [1] was 1 µM. It also gave a GI50 [2] of 16.1 µM.
Work on `Cc1ccc(C(=O)N/N=C/C2=C(Cl)c3ccccc3CCC2)cc1` yielded a GI50 (HeLa) of 0.3 µM, a GI50 (MDA-MB-231) of 0.71 µM and a GI50 [1] of 10 µM. It also gave a GI50 [2] of 0.3 µM.
Compound `COc1cccc(C(=O)N/N=C/C2=C(Cl)c3ccccc3CCC2)c1C` has a GI50 (HeLa) of 9.2 µM, a GI50 (MDA-MB-231) of 0.29 µM and a GI50 [1] of 0.7 µM. For the same compound, the GI50 [2] was 26.5 µM.
`COc1cc(C(=O)N/N=C/C2=C(Cl)c3ccccc3CCC2)cc(OC)c1OC` gave a GI50 (HeLa) of 0.77 µM, a GI50 (MDA-MB-231) of 30 µM and a GI50 [1] of 69.3 µM. For the same compound, the GI50 [2] was 75.6 µM.
For `O=C(N/N=C/C1=C(Cl)c2ccccc2CCC1)c1cccc(Cl)c1`, the GI50 (HeLa) was 19.2 µM, the GI50 (MDA-MB-231) was 16.3 µM and the GI50 [1] was 78.4 µM. It also gave a GI50 [2] of 27.3 µM.
Compound `Nc1ccccc1C(=O)N/N=C/C1=C(Cl)c2ccccc2CCC1` has a GI50 (HeLa) of over 100 µM, a GI50 (MDA-MB-231) of 5 µM and a GI50 [1] of 65.1 µM. The GI50 [2] was 51 µM.
`O=C(N/N=C/C1=C(Cl)c2ccccc2CCC1)c1ccc([N+](=O)[O-])cc1` gave a GI50 (HeLa) of over 100 µM, a GI50 (MDA-MB-231) of 3.8 µM and a GI50 [1] of 2.3 µM. The GI50 [2] was 26 µM.
Work on `COc1cc(C(=O)N/N=C/C2=C(Cl)c3ccccc3CCC2)c([N+](=O)[O-])cc1OC` yielded a GI50 (HeLa) of 1.1 µM, a GI50 (MDA-MB-231) of over 100 µM and a GI50 [1] of 10.9 µM. For the same compound, the GI50 [2] was 2.7 µM.
`O=C(N/N=C/C1=C(Cl)c2ccccc2CCC1)c1cccnc1` gave a GI50 (HeLa) of 7.5 µM, a GI50 (MDA-MB-231) of 91.7 µM and a GI50 [1] of 11.7 µM. It also gave a GI50 [2] of 0.15 µM.
Work on `O=C(N/N=C/C1=C(Cl)c2ccccc2CCC1)c1cccc(I)c1` yielded a GI50 (HeLa) of 6.3 µM, a GI50 (MDA-MB-231) of 55.2 µM and a GI50 [1] of 1.6 µM. It also gave a GI50 [2] of 7.6 µM.
`O=C(N/N=C/C1=C(Cl)c2ccccc2CCC1)c1cccc(C(F)(F)F)c1` showed a GI50 (HeLa) of 16.3 µM, a GI50 (MDA-MB-231) of 94.3 µM and a GI50 [1] of 5.8 µM. The GI50 [2] was 2 µM.
In the case of `O=C(N/N=C/C1=C(Cl)c2ccccc2CCC1)c1cccc2ccccc12`, the GI50 (HeLa) was 4.7 µM, the GI50 (MDA-MB-231) was 12.1 µM and the GI50 [1] was 13.6 µM. For the same compound, the GI50 [2] was 9.2 µM.
For `Cc1cc2c(cc1C)C(Cl)=C(/C=N/NC(=O)c1ccccc1)CCC2`, the GI50 (HeLa) was over 100 µM, the GI50 (MDA-MB-231) was 2.5 µM and the GI50 [1] was over 100 µM. The GI50 [2] was 1.8 µM.
Compound `Cc1ccc(C(=O)N/N=C/C2=C(Cl)c3cc(C)c(C)cc3CCC2)cc1` has a GI50 (HeLa) of over 100 µM, a GI50 (MDA-MB-231) of 32.9 µM and a GI50 [1] of 28.8 µM. For the same compound, the GI50 [2] was 0.1 µM.
With `COc1cccc(C(=O)N/N=C/C2=C(Cl)c3cc(C)c(C)cc3CCC2)c1C` the GI50 (HeLa) was 0.3 µM, the GI50 (MDA-MB-231) was 10 µM and the GI50 [1] was 2 µM. The GI50 [2] was 0.17 µM.
Compound `COc1cc(C(=O)N/N=C/C2=C(Cl)c3cc(C)c(C)cc3CCC2)cc(OC)c1OC` has a GI50 (HeLa) of 0.76 µM, a GI50 (MDA-MB-231) of 0.46 µM and a GI50 [1] of 2.3 µM. The GI50 [2] was 20.9 µM.
For `Cc1cc2c(cc1C)C(Cl)=C(/C=N/NC(=O)c1cccc(Cl)c1)CCC2`, the GI50 (HeLa) was 0.77 µM, the GI50 (MDA-MB-231) was 1.93 µM and the GI50 [1] was 33.6 µM. For the same compound, the GI50 [2] was over 100 µM.
`Cc1cc2c(cc1C)C(Cl)=C(/C=N/NC(=O)c1ccccc1N)CCC2` showed a GI50 (HeLa) of over 100 µM, a GI50 (MDA-MB-231) of 3.7 µM and a GI50 [1] of 0.81 µM. It also gave a GI50 [2] of 36.3 µM.
For `COc1cc(C(=O)N/N=C/C2=C(Cl)c3cc(C)c(C)cc3CCC2)c([N+](=O)[O-])cc1OC`, the GI50 (HeLa) was 2 µM, the GI50 (MDA-MB-231) was 0.22 µM and the GI50 [1] was 1.6 µM. For the same compound, the GI50 [2] was 13.8 µM.
`Cc1cc2c(cc1C)C(Cl)=C(/C=N/NC(=O)c1cccnc1)CCC2` showed a GI50 (HeLa) of 0.65 µM, a GI50 (MDA-MB-231) of 5.4 µM and a GI50 [1] of 1.6 µM. It also gave a GI50 [2] of 8.4 µM.
Work on `Cc1cc2c(cc1C)C(Cl)=C(/C=N/NC(=O)c1cccc(I)c1)CCC2` yielded a GI50 (HeLa) of over 100 µM, a GI50 (MDA-MB-231) of 1.2 µM and a GI50 [1] of 4.3 µM. It also gave a GI50 [2] of 1.9 µM.
For `Cc1cc2c(cc1C)C(Cl)=C(/C=N/NC(=O)c1cccc(C(F)(F)F)c1)CCC2`, the GI50 (HeLa) was 6.8 µM, the GI50 (MDA-MB-231) was under 0.01 µM and the GI50 [1] was 12.2 µM. It also gave a GI50 [2] of 7.8 µM.
`COc1cccc2c1C(=O)c1c(O)c3c(c(O)c1C2=O)C[C@@](O)(C(=O)CO)C[C@@H]3O[C@H]1C[C@H](N)[C@H](O)[C@H](C)O1` [DOXORUBICIN] showed a GI50 (HeLa) of 0.073 µM, a GI50 (MDA-MB-231) of 0.085 µM and a GI50 [1] of 0.097 µM. The GI50 [2] was 0.023 µM.
With `CC(=O)O[C@H]1C(=O)[C@@]2(C)[C@H]([C@H](OC(=O)c3ccccc3)[C@]3(O)C[C@H](OC(=O)[C@H](O)[C@@H](NC(=O)c4ccccc4)c4ccccc4)C(C)=C1C3(C)C)[C@]1(OC(C)=O)CO[C@@H]1C[C@@H]2O` [PACLITAXEL] the GI50 (HeLa) was 0.025 µM, the GI50 (MDA-MB-231) was 0.091 µM and the GI50 [1] was 0.056 µM. The GI50 [2] was 0.075 µM.
